How the values were obtained:
[1] = test system: γ-H2AX in HT29 and SW480 cells; assay: γ-H2AX DNA damage marker, western blot and immunofluorescence staining; assay type: cell-based, human
Protocol: After treatment, protein lysates were collected for Western blot analysis. A total of […] of protein was used for SDS-PAGE. After primary and secondary antibody incubations, the signal was detected by a chemiluminescence detection kit, imaged by Syngene (Imgen Technologies). Antibodies for PUMA (for IHC), p53 (Santa Cruz Biotechnology), caspase 8, cleaved caspase 8, caspase 9, caspase 3, cleavage PARP, eIF2α, p-eIF2α (Ser51), CHOP, ATF4, DR5, FOXO3a, p-FOXO3a (Ser253), NF-κB p65, p-NF-κB p65 (Ser536), c-Jun, p-c-Jun (Ser63), JNK, p-JNK (Thr183/Tyr185), PUMA (for WB), c-Myc, phosphor-S62-cMyc (Cell Signaling Technology), Noxa, p21 (Calbiochem), p73 (Bethyl laboratories Inc), Ran (BD Biosciences), […] (Sigma).
A total of 5×10^4 cells were seeded in each well of 8-well chamber slides. After treatment, cells were fixed and permeabilized by methanol:acetone (1:1) for 20 minutes at −20° C. Fixed cells were blocked by 2% BSA for 1 hour, followed by primary antibody incubation for 1 hours and Cy3-conjuated secondary antibody incubation for 1 hour at room temperature. After washing, cells were stained with DAPI for 10 minutes at room temperature. Cells were mounted, and examined by fluorescence microscopy.
DNA damage induces the p53 pathway and leads to cell apoptosis. To study whether the p53 pathway restoration by compound PG3-Oc is due to DNA damage, the uptake and localization of PG3-Oc was investigated in cells. PG3-Oc and prodigiosin are red fluorescent compounds, and their localization in live cells can be monitored by fluorescence microscopy. PG3-Oc and prodigiosin rapidly entered cells within 2 hours of incubation and remained in the cytosol at the 8-hour time point in HT29 and SW480 cells (FIG. 46). […] Baldino, et al. reported that prodigiosin localized to the cytoplasm, but not within the nucleus, and no γ-H2AX signal was detected in A549 cancer cells (Baldino et al., Bioorg Med Chem Lett, 2006, 16, 701-704). […]

[2] = test system: HT29 tumor xenografts; assay type: in vivo, mouse
Protocol: One million HT29 were implanted subcutaneously in the flanks in each athymic nude mouse (female, 4-6 weeks old). The mice were divided at random into two groups and treated with the vehicle (10% DMSO, 20% Kollipher EL in PBS) and PG3-Oc (5 mg/kg, 3 times/week) by intraperitoneal injection when the tumor masses reached a size of 5 to 6 mm. Subsequently, tumor volumes were measured with a caliper and calculated using V=0.5×Length×Width^2. Twenty three days after treatment, the mice were euthanized and tumors were excised. H & E staining and Immunohistochemistry (IHC) of paraffin-embedded tumor and tissue sections were performed at the Fox Chase Cancer Center Histopathology Facility.
To evaluate the antitumor effects of PG3-Oc in vivo, a human tumor xenograft model was established by subcutaneous injection of human colon cancer cells into nude mice. After the tumor volume reached approximately 50 mm^3, mice were treated by i.p. injection with vehicle or PG3-Oc at 5 mg/kg 3 times weekly for 2 weeks.

[3] = nude mice, 5 mg/kg i.p. 3 times weekly

With CCCCCCCCOC(=O)CCc1c(C)[nH]c(/C=C2\N=C(c3ccc[nH]3)C=C2OC)c1C [PG3-Oc, Octyl (Z)-3-(5-((4′-methoxy-1H,5′H-[2,2′-bipyrrol]-5′-ylidene)methyl)-2,4-dimethyl-1H-pyrrol-3-yl)propanoate] the “induction of 65-H2AX (DNA damage marker) / foci formation” value [1] was “did not induce”, the “body weight versus vehicle treatment group” value ([2]; mouse, in vivo, ip, 5 mg/kg) was “No significant difference” and the “Ki-67 expression in tumors as compared with the vehicle group” value [2, 3] was “significantly decreased”. The “PUMA in tumors as compared with controls” value [2, 3] was “significantly induced” and the “tumor volume as compared with vehicle-treated mice” value [2, 3] was “significantly reduced”.

From US12344599B2, “Prodigiosin analogs and methods of use” (Institute For Cancer Research, priority 2016, dated 2025)
